Values quoted from earlier work in US20210369601A1, “Pharmaceutical Formulation” (Klaria Pharma Holding AB, priority 2018, published 2021).

Conditions: aqueous solution

CNCC(O)c1ccc(O)c(O)c1 (centres unmarked) [adrenaline]
pH of acceptable stability: < 5.5 | pH of optimal stability: 3-4
